Measurements published in the supplement of paper PMC10307832.

Compound: CO[C@@H]1[C@H](N(C)C(=O)c2ccccc2)C[C@H]2O[C@]1(C)n1c3ccccc3c3c4c(c5c6ccccc6n2c5c31)C(=O)NC4 [Midostaurin] + CCNC(=O)c1noc(-c2cc(C(C)C)c(O)cc2O)c1-c1ccc(CN2CCOCC2)cc1 [Luminespib] (partner 0.01 µM)
Experiment: relative viability (nuclei count vs DMSO), 5 days (fraction); higher = more cells survive
Details: first compound 0.01 µM
In short: (§1)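 Cells from lung cancer lines were seeded into 1536-well plates and, one day later, dosed by pin tool. Treatments were either a single drug or a fixed dose of an anchor drug with five library-drug doses (not always all listed) in √10 steps. After 5 days, nuclei were stained in a one-step fixation (final 0.05% Triton X-100, 1% formaldehyde, 1 ug/ml Hoechst) and counted on 4× images, and relative viability is the treated-to-vehicle nuclei ratio, as the median of duplicate plates.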

Going from ChaGo-K-1 to NCI-H2170, the relative viability rises from 0.619 to 0.628.

Going from NCI-H2009 to NCI-H661, the relative viability falls from 1.05 to 0.799.

Compared with SK-LU-1, NCI-H2228 is lower in relative viability: 0.202 for the first, 0.155 for the second.

Going from NCI-H1792 to NCI-H2023, the relative viability rises from 0.399 to 0.627.

NCI-H1563 was tested, and the relative viability was 0.505.

Same assay, conditions: first compound 0.03162 µM

Compared with NCI-H2342, NCI-H1623 is lower in relative viability: 0.708 for the first, 0.647 for the second.

Going from NCI-H727 to NCI-H1650, the relative viability falls from 0.335 to 0.175.

First: NCI-H1993
Second: SW 1573
The relative viability of the first is higher: 0.821 for the first, 0.213 for the second.

First: NCI-H838
Second: LCLC-103H
The relative viability of the first is lower: 0.362 for the first, 0.875 for the second.

Going from NCI-H520 to NCI-H2126, the relative viability rises from 0.204 to 0.679.

Going from EMC-BAC-2 to NCI-H2085, the relative viability falls from 1.05 to 0.464.

Going from NCI-H1666 to NCI-H596, the relative viability rises from 0.927 to 1.17.

Compared with LK-2, NCI-H2087 is lower in relative viability: 0.221 for the first, 0.18 for the second.

First: SK-MES-1
Second: H3255
The relative viability of the first is lower: 0.804 for the first, 0.848 for the second.

First: COR-L23
Second: COR-L 105
The relative viability of the first is lower: 0.644 for the first, 0.686 for the second.

First: LOU-NH91
Second: ChaGo-K-1
The relative viability of the first is lower: 0.347 for the first, 0.627 for the second.

Compared with NCI-H2170, HCC-44 is higher in relative viability: 0.509 for the first, 1.1 for the second.

Going from NCI-H2009 to NCI-H661, the relative viability falls from 0.954 to 0.783.

Compared with SK-LU-1, NCI-H2228 is lower in relative viability: 0.199 for the first, 0.163 for the second.

Compared with NCI-H1792, NCI-H2023 is higher in relative viability: 0.429 for the first, 0.753 for the second.

In the case of NCI-H1563, the relative viability is reported as 0.515.

Same assay, conditions: first compound 0.1 µM

Compared with NCI-H2342, NCI-H1623 is lower in relative viability: 0.738 for the first, 0.513 for the second.

Compared with NCI-H727, NCI-H1650 is lower in relative viability: 0.264 for the first, 0.187 for the second.

First: NCI-H1993
Second: SW 1573
The relative viability of the first is higher: 0.866 for the first, 0.308 for the second.

Compared with NCI-H838, LCLC-103H is higher in relative viability: 0.322 for the first, 0.847 for the second.

Compared with NCI-H520, NCI-H2126 is higher in relative viability: 0.235 for the first, 0.847 for the second.

Compared with EMC-BAC-2, NCI-H2085 is lower in relative viability: 0.898 for the first, 0.371 for the second.

Compared with NCI-H1666, NCI-H596 is lower in relative viability: 0.897 for the first, 0.869 for the second.

Going from LK-2 to NCI-H2087, the relative viability falls from 0.187 to 0.154.

Going from SK-MES-1 to H3255, the relative viability rises from 0.733 to 0.779.

Going from COR-L23 to COR-L 105, the relative viability rises from 0.541 to 0.777.

Going from LOU-NH91 to ChaGo-K-1, the relative viability rises from 0.394 to 0.525.

Compared with NCI-H2170, HCC-44 is higher in relative viability: 0.633 for the first, 0.964 for the second.

Compared with NCI-H2009, NCI-H661 is lower in relative viability: 0.936 for the first, 0.924 for the second.

First: SK-LU-1
Second: NCI-H2228
The relative viability of the first is higher: 0.206 for the first, 0.164 for the second.

Compared with NCI-H1792, NCI-H2023 is higher in relative viability: 0.388 for the first, 0.589 for the second.

In the case of NCI-H1563, the relative viability is reported as 0.501.

Same assay, conditions: first compound 0.3162 µM

First: NCI-H2342
Second: NCI-H1623
The relative viability of the first is higher: 0.754 for the first, 0.632 for the second.

First: NCI-H727
Second: NCI-H1650
The relative viability of the first is higher: 0.902 for the first, 0.173 for the second.

Compared with NCI-H1993, SW 1573 is lower in relative viability: 0.856 for the first, 0.18 for the second.

First: NCI-H838
Second: LCLC-103H
The relative viability of the first is lower: 0.299 for the first, 0.674 for the second.

First: NCI-H520
Second: NCI-H2126
The relative viability of the first is lower: 0.258 for the first, 0.896 for the second.

Going from EMC-BAC-2 to NCI-H2085, the relative viability falls from 1.16 to 0.42.

First: NCI-H1666
Second: NCI-H596
The relative viability of the first is lower: 0.864 for the first, 1.18 for the second.

Compared with LK-2, NCI-H2087 is lower in relative viability: 0.199 for the first, 0.169 for the second.

Going from SK-MES-1 to H3255, the relative viability rises from 0.336 to 0.848.

Going from COR-L23 to COR-L 105, the relative viability falls from 0.625 to 0.621.

First: LOU-NH91
Second: ChaGo-K-1
The relative viability of the first is lower: 0.309 for the first, 0.626 for the second.

Going from NCI-H2170 to HCC-44, the relative viability rises from 0.767 to 1.11.

Compared with NCI-H2009, NCI-H661 is higher in relative viability: 1 for the first, 1.04 for the second.

Compared with SK-LU-1, NCI-H2228 is lower in relative viability: 0.194 for the first, 0.134 for the second.

Compared with NCI-H1792, NCI-H2023 is lower in relative viability: 0.446 for the first, 0.333 for the second.

NCI-H1563 showed a relative viability of 0.492.

Compound: CO[C@@H]1[C@H](N(C)C(=O)c2ccccc2)C[C@H]2O[C@]1(C)n1c3ccccc3c3c4c(c5c6ccccc6n2c5c31)C(=O)NC4 [Midostaurin] + O=C(CCCCCCC(=O)Nc1ccccc1)NO [Vorinostat] (partner 1 µM)
Experiment: as above
Details: first compound 0.01 µM
In short: as §1

First: NCI-H2342
Second: NCI-H727
The relative viability of the first is lower: 0.741 for the first, 1.4 for the second.

First: NCI-H1650
Second: NCI-H1993
The relative viability of the first is lower: 0.57 for the first, 0.83 for the second.

First: SW 1573
Second: NCI-H838
The relative viability of the first is lower: 0.717 for the first, 0.72 for the second.

First: LCLC-103H
Second: NCI-H520
The relative viability of the first is higher: 0.824 for the first, 0.684 for the second.

Going from NCI-H2126 to EMC-BAC-2, the relative viability falls from 0.812 to 0.415.

Going from NCI-H2085 to HCC-366, the relative viability falls from 0.79 to 0.364.

Going from NCI-H1666 to NCI-H596, the relative viability falls from 1.12 to 0.554.

Going from LK-2 to NCI-H2087, the relative viability rises from 0.252 to 0.56.

Going from NCI-H1648 to SK-MES-1, the relative viability rises from 0.534 to 1.07.

First: H3255
Second: COR-L23
The relative viability of the first is higher: 0.86 for the first, 0.456 for the second.

First: COR-L 105
Second: IA-LM
The relative viability of the first is higher: 0.899 for the first, 0.822 for the second.

First: LOU-NH91
Second: ChaGo-K-1
The relative viability of the first is higher: 0.933 for the first, 0.746 for the second.

First: NCI-H2170
Second: HCC-44
The relative viability of the first is lower: 0.857 for the first, 1.08 for the second.

First: HCC-78
Second: NCI-H2009
The relative viability of the first is lower: 0.545 for the first, 0.808 for the second.

First: NCI-H661
Second: SK-LU-1
The relative viability of the first is higher: 0.777 for the first, 0.735 for the second.

Compared with NCI-H2228, NCI-H2023 is lower in relative viability: 0.878 for the first, 0.601 for the second.

Same assay, conditions: first compound 0.03162 µM

Compared with NCI-H2342, NCI-H727 is higher in relative viability: 0.764 for the first, 1.11 for the second.

First: NCI-H1650
Second: NCI-H1993
The relative viability of the first is lower: 0.606 for the first, 0.782 for the second.

Compared with SW 1573, NCI-H838 is lower in relative viability: 1.09 for the first, 0.705 for the second.

Going from LCLC-103H to NCI-H520, the relative viability falls from 0.717 to 0.702.

First: NCI-H2126
Second: EMC-BAC-2
The relative viability of the first is higher: 0.631 for the first, 0.437 for the second.

First: NCI-H2085
Second: HCC-366
The relative viability of the first is higher: 0.783 for the first, 0.306 for the second.

NCI-H1666 showed a relative viability of 0.985.
